US8293790B2, “Pharmaceutical compositions comprising DGLA and benzoyl peroxide and methods of use thereof” (Dignity Sciences Limited, priority 2011, dated 2012)
Converted amounts (≈) assume the structure as drawn. Like-named read-outs stand apart in the source and are kept apart here. Marks after values point to notes of the source that are not given here.

Experiments:
P. acnes [1] = experiment: Agar dilution method: growth of P. acnes and MIC, compounds tested singly; assay type: cell-based, Propionibacterium acnes; parameters: key to Growth Index (+++, ++, +, −) Plate 1 / Growth Index (+++, ++, +, −) Plate 2 / Growth Index (+++, ++, +, −) Plate 3 / Growth Index (+++, ++, +, −) Avg: +++: confluent growth (comparable to control); ++: less confluent growth; +: marked reduction in growth to multiple tiny, single colonies; −: no growth present; MIC: unit: mg/mL; details: for MIC: compound alone
Experimental: (§1) Several compounds including fatty acids such as DGLA, 15-OHEPA, and 15-HETrE were tested to determine their capacity to inhibit the growth of P. acnes. In an exemplary method, an agar dilution method was used to determine the minimum inhibitory concentration (MIC) of each tested compound. Briefly, the agar dilution method involved preparing a series of concentrations of each compound (e.g., nicotinamide, benzoyl peroxide, adapalene, metronidazole, DGLA, 15-OHEPA, and 15-HETrE) in a Reinforced Clostridial Agar (RCA) media that facilitates growth of P. acnes under anaerobic conditions. An inoculum of P. acnes was prepared by incubation of P. acnes for approximately seven days at 35-37° C. to achieve a ≧1.0 OD600 inoculum of P. acnes in RCM broth. A portion of this inoculum was then added to the surface of each plate as a 10 μL spot and incubated at 35-37° C. for 72 hours or more. Growth of P. acnes was then observed and compared to control plates in which no compound has been added, and positive inhibition plates prepared with erythromycin. […] The growth of P. acnes in the presence of nicotinamide, benzoyl peroxide, adapalene, metronidazole, DGLA, 15-OHEPA, and 15-HETrE was determined with varying concentrations of the compound (see, Table 2). Next, the MIC was determined as the concentration at which a marked reduction (+) occurs in the appearance of growth on the test plate (as per Clinical and Laboratory Standards Institute M11-A7).

P. acnes [2] = experiment: Agar dilution method: growth of P. acnes and MIC, fatty acid compounds in combination with other compounds; assay type: cell-based, Propionibacterium acnes; details: for MIC (mg/mL) with 0.05 mg/mL 15-HETrE spike / MIC (mg/mL) with 0.1 mg/mL 15-OHEPA spike: itself an inhibitory concentration
Experimental: as §1, with “M11-A7). The compounds tested singly in Example 1 were tested in combination with one another to determine the capacity of the combination to inhibit the growth of P. acnes. In an exemplary method, the MIC was determined for each of the combination as described in Example 1. Briefly, test combinations included DGLA with nicotinamide, benzoyl peroxide, adapalene, or metronidazole; 15-HETrE with nicotinamide, benzoyl peroxide, adapalene, or metronidazole; and 15-OHEPA with nicotinamide, benzoyl peroxide, adapalene, or metronidazole. The tables below show the growth of P. acnes in the presence of 0.4 or 1.0 mg/mL DGLA with varying concentrations of nicotinamide, benzoyl peroxide, adapalene, or metronidazole (Table 3); the growth of P. acnes in the presence of 0.01 or 0.05 mg/mL 15-HETrE with varying concentrations of nicotinamide, benzoyl peroxide, adapalene, or metronidazole (Table 5); and the growth of P. acnes in the presence of 0.5 or 0.1 mg/mL 15-OHEPA with varying concentrations of nicotinamide, benzoyl peroxide, adapalene, or metronidazole (Table 7).” for “M11-A7).”

[3] = compound at 0.00001 mg/mL in agar
[4] = compound at 0.0001 mg/mL in agar
[5] = compound at 0.001 mg/mL in agar
[6] = Cutibacterium acnes, MIC = concentration with marked reduction (+) of growth, read-out: MIC (mg/mL) as per P-11-0007 or P-11-0008 Addendum A
[7] = compound at 0.010 mg/mL in agar
[8] = compound at 0.025 mg/mL in agar
[9] = compound at 0.050 mg/mL in agar
[10] = compound at 0.075 mg/mL in agar

| MIC (P. acnes [1]; [6]) | MIC (mg/mL) with 0.05 mg/mL 15-HETrE spike (P. acnes [2]) | MIC (mg/mL) with 0.1 mg/mL 15-OHEPA spike (P. acnes [2]) | Structure (SMILES) | Growth Index (+++, ++, +, −) Avg (P. acnes [1]; compound at 0.2 mg/mL in agar) | Growth Index (+++, ++, +, −) Plate 1 (P. acnes [1]; compound at 0.2 mg/mL in agar) | Growth Index (+++, ++, +, −) Plate 2 (P. acnes [1]; compound at 0.2 mg/mL in agar) | Growth Index (+++, ++, +, −) Plate 3 (P. acnes [1]; compound at 0.2 mg/mL in agar) | Growth Index (+++, ++, +, −) Avg (P. acnes [1]; compound at 0.4 mg/mL in agar) | Growth Index (+++, ++, +, −) Plate 1 (P. acnes [1]; compound at 0.4 mg/mL in agar) | Growth Index (+++, ++, +, −) Plate 2 (P. acnes [1]; compound at 0.4 mg/mL in agar) | Growth Index (+++, ++, +, −) Plate 3 (P. acnes [1]; compound at 0.4 mg/mL in agar) | Growth Index (+++, ++, +, −) Avg (P. acnes [1]; compound at 0.6 mg/mL in agar) | Growth Index (+++, ++, +, −) Plate 1 (P. acnes [1]; compound at 0.6 mg/mL in agar) | Growth Index (+++, ++, +, −) Plate 2 (P. acnes [1]; compound at 0.6 mg/mL in agar) | Growth Index (+++, ++, +, −) Plate 3 (P. acnes [1]; compound at 0.6 mg/mL in agar) | Growth Index (+++, ++, +, −) Avg (P. acnes [1]; compound at 0.8 mg/mL in agar) | Growth Index (+++, ++, +, −) Plate 1 (P. acnes [1]; compound at 0.8 mg/mL in agar) | Growth Index (+++, ++, +, −) Plate 2 (P. acnes [1]; compound at 0.8 mg/mL in agar) | Growth Index (+++, ++, +, −) Plate 3 (P. acnes [1]; compound at 0.8 mg/mL in agar) | other results |
| --- | --- | --- | --- | --- | --- | --- | --- | --- | --- | --- | --- | --- | --- | --- | --- | --- | --- | --- | --- | --- |
|  |  |  | CCCCCC(O)/C=C/C=C\C/C=C\CCCCCCC(=O)O (stereo not shown) [15-HETrE, 15-Hydroxy-eicosa-8(Z),11(Z),13(E)-trienoic acid] |  |  |  |  |  |  |  |  |  |  |  |  |  |  |  |  | effect on growth of P. acnes on its own (P. acnes [1]; 0.01 mg/ml): no effect on its own; Growth Index (+++, ++, +, −) Avg (P. acnes [1]; [3]): +++; Growth Index (+++, ++, +, −) Plate 1 (P. acnes [1]; [3]): +++; Growth Index (+++, ++, +, −) Plate 2 (P. acnes [1]; [3]): +++; Growth Index (+++, ++, +, −) Plate 3 (P. acnes [1]; [3]): +++; Growth Index (+++, ++, +, −) Avg (P. acnes [1]; [4]): +++; Growth Index (+++, ++, +, −) Plate 1 (P. acnes [1]; [4]): +++; Growth Index (+++, ++, +, −) Plate 2 (P. acnes [1]; [4]): +++; Growth Index (+++, ++, +, −) Plate 3 (P. acnes [1]; [4]): +++; Growth Index (+++, ++, +, −) Avg (P. acnes [1]; [5]): +++; Growth Index (+++, ++, +, −) Plate 1 (P. acnes [1]; [5]): +++; Growth Index (+++, ++, +, −) Plate 2 (P. acnes [1]; [5]): +++; Growth Index (+++, ++, +, −) Plate 3 (P. acnes [1]; [5]): +++; Growth Index (+++, ++, +, −) Avg (P. acnes [1]; compound at 0.01 mg/mL in agar): ++; Growth Index (+++, ++, +, −) Plate 1 (P. acnes [1]; compound at 0.01 mg/mL in agar): ++; Growth Index (+++, ++, +, −) Plate 2 (P. acnes [1]; compound at 0.01 mg/mL in agar): +++; Growth Index (+++, ++, +, −) Plate 3 (P. acnes [1]; compound at 0.01 mg/mL in agar): ++ |
| 50 to 75 µg/mL (≈ 157 to 236 µM) |  |  | CCC=CCC(O)C=CC=CCC=CCC=CCCCC(=O)O (stereo not shown) [15-OHEPA, 15-Hydroxy-eicosa-5,8,11,13,17-pentaenoic acid] |  |  |  |  |  |  |  |  |  |  |  |  |  |  |  |  | effect on growth of P. acnes on its own (P. acnes [1]; 0.05 mg/mL): no effect on its own; Growth Index (+++, ++, +, −) Avg (P. acnes [1]; [7]): +++; Growth Index (+++, ++, +, −) Plate 1 (P. acnes [1]; [7]): +++; Growth Index (+++, ++, +, −) Plate 2 (P. acnes [1]; [7]): +++; Growth Index (+++, ++, +, −) Plate 3 (P. acnes [1]; [7]): +++; Growth Index (+++, ++, +, −) Avg (P. acnes [1]; [8]): +++; Growth Index (+++, ++, +, −) Plate 1 (P. acnes [1]; [8]): +++; Growth Index (+++, ++, +, −) Plate 2 (P. acnes [1]; [8]): +++; Growth Index (+++, ++, +, −) Plate 3 (P. acnes [1]; [8]): +++; Growth Index (+++, ++, +, −) Avg (P. acnes [1]; [9]): +++; Growth Index (+++, ++, +, −) Plate 1 (P. acnes [1]; [9]): +++; Growth Index (+++, ++, +, −) Plate 2 (P. acnes [1]; [9]): +++; Growth Index (+++, ++, +, −) Plate 3 (P. acnes [1]; [9]): +++; Growth Index (+++, ++, +, −) Avg (P. acnes [1]; [10]): +; Growth Index (+++, ++, +, −) Plate 1 (P. acnes [1]; [10]): +; Growth Index (+++, ++, +, −) Plate 2 (P. acnes [1]; [10]): +; Growth Index (+++, ++, +, −) Plate 3 (P. acnes [1]; [10]): + |
| > 800 µg/mL | <0.2 mg/mL | <0.2 mg/mL | COc1ccc(-c2ccc3cc(C(=O)O)ccc3c2)cc1C12CC3CC(CC(C3)C1)C2 [Adapalene, 6-[3-(1-adamantyl)-4-methoxyphenyl]-2-naphthoic acid] | +++ | +++ | +++ | +++ | +++ | +++ | +++ | +++ | ++ | ++ | ++ | +++ | ++ | ++ | ++ | ++ | MIC (P. acnes [1]; no unit in the sentence): > 0.8; MIC (mg/mL) with 0.05 mg/mL 15-OHEPA spike (P. acnes [2]; 0.05 mg/mL 15-OHEPA spike): >0.8 mg/mL; MIC (mg/mL) with 0.4 mg/mL dGLA spike (P. acnes [2]; 0.4 mg/mL dGLA spike, dGLA supplied by Sigma, cat# E4504): >0.6* mg/mL; MIC (mg/mL) with 1.0 mg/mL dGLA spike (P. acnes [2]; 1.0 mg/mL dGLA spike, dGLA supplied by Cayman, cat# 90230): >0.6* mg/mL; growth of P. acnes in combination with 15-OHEPA compared with 15-OHEPA alone (P. acnes [2]; in combination with 15-OHEPA): did not reduce the growth of P. Acnes below that of 15 OHEPA used alone; growth of P. acnes in combination with DGLA compared with DGLA alone (P. acnes [2]; in combination with DGLA): did not reduce the growth of P. Acnes below that of DGLA used alone |
| 600 to 800 µg/mL (≈ 2480 to 3300 µM) | <0.2 mg/mL | <0.2 mg/mL | O=C(OOC(=O)c1ccccc1)c1ccccc1 [Benzoyl Peroxide, benzoyl peroxide] | +++ | +++ | +++ | +++ | +++ | +++ | +++ | +++ | ++ | ++ | +++ | ++ | + | + | + | + | growth of P. acnes in combination with 15-HETrE compared with 15-HETrE alone (P. acnes [2]; in combination with 15-HETrE): did not reduce the growth of P. Acnes below that of 15-HETrE used alone |
| 400 to 600 µg/mL (≈ 1310 to 1960 µM) |  |  | CCCCC/C=C\C/C=C\C/C=C\CCCCCCC(=O)O [DGLA, cis-8,11,14-eicosatrienoic acid] | +++ | +++ | +++ | +++ | +++ | +++ | +++ | +++ | + | ++ | − | ++ | + | ++ | + | + | effect on growth of P. acnes on its own (P. acnes [1]; 0.4 mg/ml): no effect on its own; Growth Index (+++, ++, +, −) Avg (P. acnes [1]; compound at 1.0 mg/mL in agar): +; Growth Index (+++, ++, +, −) Plate 1 (P. acnes [1]; compound at 1.0 mg/mL in agar): +; Growth Index (+++, ++, +, −) Plate 2 (P. acnes [1]; compound at 1.0 mg/mL in agar): +; Growth Index (+++, ++, +, −) Plate 3 (P. acnes [1]; compound at 1.0 mg/mL in agar): + |
| 0.01 to 0.05 µg/mL (≈ 0.0136 to 0.0681 µM) |  |  | CC[C@H]1OC(=O)[C@H](C)[C@@H](O[C@H]2C[C@@](C)(OC)[C@@H](O)[C@H](C)O2)[C@H](C)[C@@H](O[C@@H]2O[C@H](C)C[C@H](N(C)C)[C@H]2O)[C@](C)(O)C[C@@H](C)C(=O)[C@H](C)[C@@H](O)[C@]1(C)O [Erythromycin] |  |  |  |  |  |  |  |  |  |  |  |  |  |  |  |  |  |
